In experiment [1] the test system is cumulus enclosed mouse oocytes. Briefly: Mouse oocyte assay: activation of meiosis in cumulus enclosed oocytes in Hx-medium. In kind it is cell-based. The settings on record: CEO in Hx-medium, 22 hours culture. How it is done:
Testing of Meiosis-Activating Substances in the Mouse Oocyte Assay
Oocytes were obtained from immature female mice (C57BI/6J×DBA/2J F1-hybrids, Bomholtgaard, Denmark) weighing 13-16 grams, that were kept under controlled lighting and temperature. The mice received an intra-peritoneal injection of 0.2 ml gonadotropins (containing 10 IU PMSG, pregnant mare serum gonadotropin, Sigma Cat. No. G-4877) and 48 hours later the animals were killed by cervical dislocation.
Collection and Culture of Oocytes
The ovaries were dissected out and the oocytes were isolated in Hx-medium (see below) under a stereo microscope by manual rupture of the follicles using a pair of 27 gauge needles. Spherical, cumulus enclosed oocytes (CEO) displaying an intact germinal vesicle (GV) were placed in α-minimum essential medium (α-MEM without ribonucleosides, Gibco BRL, Cat. No. 22561) supplemented with 3 mM hypoxanthine (Sigma Cat. No. H-9377), 8 mg/ml Human Serum Albumin (HSA, State Serum Institute, Denmark), 0,23 mM pyruvate (Sigma, Cat. No. S-8636), 2 mM glutamine (Flow Cat. No. 16-801), 100 IU/ml penicillin and 100 μg/ml streptomycin (Flow Cat No. 16-700). This medium was designated Hx-medium.
The oocytes were rinsed three times in Hx-medium and cultured in 4-well multidishes (Nunclon, Denmark) in which each well contained 0.4 ml of Hx-medium and approx. 25 oocytes. One control (i.e. approx. 25 oocytes cultured in Hx-medium with no addition of test compound) was always run simultaneously with the test cultures, which were made with different concentrations of the compounds to be tested. The cultures were performed at 37° C. and 100% humidity with 5% CO2 in air. The culture time was 22 hours.
Oocytes arrested in meiosis are characterized by an intact nucleus with a prominent nucleolus, known as germinal vesicle (GV). Upon reinitiation of meiosis the nucleolus and the nuclear envelope disappear and this is characterized by a breakdown of the GV, which than is called germinal vesicle breakdown (GVB). Some hours later the oocyte complete a reductional division and elicit the first so called polar body (PB).
By the end of the culture period, the number of oocytes with germinal vesicle (GV) or germinal vesicle breakdown (GVB) and those with polar body (PB) was counted using a stereo microscope or an inverted microscope with differential interference contrast equipment. The percentage of oocytes with GVB per total number of oocytes and the percentage of oocytes with PB per total number of oocytes was calculated in the test cultures and compared to the control culture.

Experiment [2] concerns mouse preantral follicles. Briefly: Mouse follicular culture system: activation of oocyte maturation. In kind it is cell-based. The settings on record: for Activation [%] GVB / Follicles [n] GV / Follicles [n] GVB: added day 2 and 3, read at day 4. How it is done:
Testing of Meiosis-Activating Substances in the Mouse Follicular Culture System
Follicles were obtained from 19-21 day-old immature female mice (C57BI/6J×CBA/J), that were kept under controlled lighting and temperature.
Collection of Serum and Culture of Follicles
Animals were anesthetized with ether, and blood was collected by means of eye extraction. After clotting, blood was centrifuged for 15 min at 4000×g, and serum was collected and stored at −20° C. until use. Ovaries were removed and placed in Leibovitz L-15 medium (Gibco Cat. No. 41300) supplemented with 1 mmol glutamine l^−1, 3 mg BSA ml^−1, 5 μg human transferrin ml^−1 (without iron), 5 μg insulin ml^−1 (culture-grade chemicals, Sigma, St. Louis, Mo.) at 37 °C.
Preantral follicles with a diameter of 170-190 μm were isolated mechanically with two 27-gauge needles attached to 1 ml syringe. They were placed and washed thereafter (3 times) in 4-well culture plates (Nunclon, Denmark) in α-minimum essential medium (α-MEM; Gibco Cat. No. 11900) supplemented with 2 mmol glutamine l^−1, 10 μg transferrin ml^−1 and 10 μg insulin ml and with 3 mg BSA ml^−1.
Follicles of 170-190 μm with normal morphological appearence, i.e. a central spherical oocyte, high density of granulosa cells, and a theca layer enclosing the entire follicle, were selected and individually cultured in 96-well culture plate (Nunclon, Denmark) inserts with 40 μl α-MEM culture medium supplemented with 50 μl immature mouse serum ml^−1, 5 μg insulin ml^−1, 2 mmol glutamine l^−1, 10 μg human transferrin ml^−1 and 0.2 IU FSH (Gonal F, Serono, Solna, Sweden). Without any oil cover follicles were cultured in a humidified incubator gassed with 5% CO2 in air at 37° C.
Start of culture was defined as day 0. Culture medium was exchanged every other day. The diameter of the follicles was measured each day using ×100 magnification and a calibrated micrometer. In addition, the survival rate of the follicles was checked by evaluation of degeneration (darkening of the follicle) and bursting (loss of the oocyte). The culture time was 4 days.
At day 2 and day 3 of culture test compound or vehicle at a volume of 1.72 μl was added to the culture medium. Test compounds were dissolved in ethanol (vehicle).
Oocytes arrested in meiosis are characterized by an intact nucleus with a prominent nucleolus, known as germinal vesicle (GV). Upon reinitiation of meiosis the nucleolus and the nuclear envelope disappear and this is characterized by a breakdown of the GV, which then is called germinal vesicle breakdown (GVB).
At day 4, by the end of the culture period, follicles were checked for resumption of meiosis. The number of follicles having oocytes with germinal vesicle (GV) or germinal vesicle breakdown (GVB) was counted using a stereo microscope or an inverted microscope with differential interference contrast equipment. The percentage of follicles with GVB per total number of follicles was calculated in the test cultures and compared to the vehicle control culture.

For another experiment, the system named is rat oocytes. The settings on record: micromolar concentrations; rat CEO and DO arrested by IBMX; cited from earlier work.

Regarding `C[C@H](CN1CCCCC1)[C@H]1CC=C2C3=C(CC[C@@]21C)[C@@]1(C)CC[C@H](O)C(C)(C)[C@@H]1CC3` [Example 1, (20S)-20-[(piperidin-1-yl)methyl]-4,4-dimethyl-5α-pregna-8,14-dien-3β-ol], in experiment [1] (0,1 μM), the “Activation [%] GVB + PB” value was 39%, the “Oocytes [n] GV” value came out at 14 n, the “Oocytes [n] GVB” value was found to be 7 n and the “Oocytes [n] PB” value worked out at 2 n. Further, in experiment [1] (1 μM), the “Activation [%] GVB + PB” value amounted to 75%, the “Oocytes [n] GV” value is 6 n, the “Oocytes [n] GVB” value stood at 12 n and the “Oocytes [n] PB” value was determined as 6 n. In addition, in experiment [1] (10 μM), the “Activation [%] GVB + PB” value is 95%, the “Oocytes [n] GV” value worked out at 1 n, the “Oocytes [n] GVB” value stood at 14 n and the “Oocytes [n] PB” value was 7 n. In experiment [2] (1 μM), the “Activation [%] GVB” value was found to be 78%, the “Follicles [n] GV” value worked out at 2 n and the “Follicles [n] GVB” value amounted to 7 n. In experiment [2] (3 μM), the “Activation [%] GVB” value came out at 100%, the “Follicles [n] GV” value was 0 n and the “Follicles [n] GVB” value is 9 n. Also, in experiment [2] (10 μM), the “Activation [%] GVB” value was found to be 100%, the “Follicles [n] GV” value amounted to 0 n and the “Follicles [n] GVB” value is given as 8 n.
For the compound `CC(C)=CCC[C@@H](C)[C@H]1CC=C2C3=C(CC[C@@]21C)[C@@]1(C)CC[C@H](O)C(C)(C)[C@@H]1CC3` [FF-MAS, 4,4-dimethyl-5α-cholesta-8,14,24-trien-3β-ol, reference compound], in experiment [1] (10 μM), the “Activation [%] GVB + PB” value is 46%, the “Oocytes [n] GV” value is listed as 13 n, the “Oocytes [n] GVB” value stood at 6 n and the “Oocytes [n] PB” value is 5 n. Besides, the resumption of meiosis entry in the experiment on rat oocytes is on record as “able to induce resumption of meiosis in a dose-dependent manner”. For the same compound, in experiment [2] (10 μM), the “Activation [%] GVB” value is on record as 0%, the “Follicles [n] GV” value worked out at 9 n and the “Follicles [n] GVB” value turned out to be 0 n. Further, the “induction of maturation / activation of meiosis in a follicle culture system” value in experiment [2] (follicle culture system) is recorded as “not able to induce maturation”.

The record behind these values is patent publication US6916921B2, “Steroid compounds, use of these compounds for the preparation of meiosis-regulating medicaments and method for the preparation of these compounds” (Schering AG, priority 2001, dated 2005).
